Each compound was assayed against T1, Cytochrome P450 11B2, mitochondrial (Homo sapiens, UniProt P19099). Settings: Adrenal gland.
T1 sequence (P19099 whole entry): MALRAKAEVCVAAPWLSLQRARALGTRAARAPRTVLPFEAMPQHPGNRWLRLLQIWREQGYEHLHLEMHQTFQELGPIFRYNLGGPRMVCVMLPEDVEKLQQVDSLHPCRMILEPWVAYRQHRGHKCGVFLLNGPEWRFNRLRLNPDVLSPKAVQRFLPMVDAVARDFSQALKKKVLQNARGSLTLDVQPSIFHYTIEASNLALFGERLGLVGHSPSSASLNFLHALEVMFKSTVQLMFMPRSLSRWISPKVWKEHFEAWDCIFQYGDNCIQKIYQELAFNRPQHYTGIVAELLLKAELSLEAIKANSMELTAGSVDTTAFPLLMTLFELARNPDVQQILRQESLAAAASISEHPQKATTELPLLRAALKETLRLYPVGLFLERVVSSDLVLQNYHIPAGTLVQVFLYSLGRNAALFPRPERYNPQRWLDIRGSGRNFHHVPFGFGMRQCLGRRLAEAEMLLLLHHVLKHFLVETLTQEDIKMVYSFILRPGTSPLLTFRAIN
Description: Inhibitory activity against Steroidgenic Cytochrome P450 C18 using Bovine adrenal mitochondria

IC50 | Compound
< 10 µM | c1ccc2c(c1)CCC1C(c3ccsc3)C21 (centres undefined)

These compounds were tested against T2, Steroid 17-alpha-hydroxylase/17,20 lyase (Rattus norvegicus, UniProt P11715). Settings: not given.
T2 sequence (P11715 whole entry): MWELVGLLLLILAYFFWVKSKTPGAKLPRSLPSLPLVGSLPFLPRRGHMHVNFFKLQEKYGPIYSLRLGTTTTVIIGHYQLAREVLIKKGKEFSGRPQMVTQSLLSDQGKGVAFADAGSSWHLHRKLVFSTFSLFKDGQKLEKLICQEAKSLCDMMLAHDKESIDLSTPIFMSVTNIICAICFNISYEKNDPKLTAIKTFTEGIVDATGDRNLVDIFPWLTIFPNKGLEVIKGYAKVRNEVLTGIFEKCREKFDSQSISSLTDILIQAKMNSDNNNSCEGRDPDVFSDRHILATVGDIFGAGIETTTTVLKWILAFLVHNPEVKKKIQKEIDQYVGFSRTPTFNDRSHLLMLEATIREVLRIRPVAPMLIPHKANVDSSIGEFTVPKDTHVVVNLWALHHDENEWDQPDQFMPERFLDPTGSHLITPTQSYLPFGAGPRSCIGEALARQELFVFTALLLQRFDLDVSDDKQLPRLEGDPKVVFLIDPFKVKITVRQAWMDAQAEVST

IC50 | Compound
< 10 µM | O=C1/C(=C/c2cccnn2)CCc2ccccc21
< 10 µM | c1ccc(C2C3CCc4ccccc4C32)nc1 (centres undefined)
< 10 µM | O=C1/C(=C/c2ccsc2)CCc2ccccc21
< 10 µM | O=C1c2ccccc2CCC1C(O)c1ccncn1 (centres undefined)
48 µM | O=C1/C(=C/c2cccnc2)CCc2ccccc21
< 10 µM | c1ccc(C2C3CCc4ccccc4C32)cc1 (centres undefined)
< 10 µM | O=C1c2ccccc2CCC1C(O)c1ccnnc1 (centres undefined)
21 µM | O=C1/C(=C/c2cncs2)CCc2ccccc21
< 10 µM | O=C1c2ccccc2CCC1C(O)c1cnccn1 (centres undefined)
< 10 µM | O=C1c2ccccc2CCC1C(O)c1cccnn1 (centres undefined)
< 10 µM | O=C1/C(=C/c2ccccc2)CCc2ccccc21
36 µM | c1ccc2c(c1)CCC1C(c3ccncc3)C21 (centres undefined)
< 10 µM | O=C1/C(=C/c2cc[nH]n2)CCc2ccccc21
< 10 µM | O=C1/C(=C/c2ccccn2)CCc2ccccc21
< 10 µM | O=C1/C(=C/c2ccnnc2)CCc2ccccc21
< 10 µM | c1ccc2c(c1)CCC1C(c3ccsc3)C21 (centres undefined)
87 µM | c1cncc(C2C3CCc4ccccc4C32)c1 (centres undefined)
37 µM | O=C1/C(=C/c2ccncc2)CCc2ccccc21

— ChEMBL document CHEMBL1129578, “Tetrahydronaphthalenes: influence of heterocyclic substituents on inhibition of steroid enzymes P450 arom and P450 17” (J Med Chem, 1996)
